Laboratory results as given in patent US6087493A, “Porphyrin compounds as telomerase inhibitors” (Regents of the University of Texas System, priority 1998, dated 2000).
Like-named read-outs stand apart in the source and are kept apart here.

Tests used:
[1] = 25 μM; Table 9
human telomerase = human telomerase (Homo sapiens, UniProt O14746); test: Telomerase inhibition, primer extension assay in HeLa cell extract; type: biochemical
MCF-7 = test: Cytotoxicity (MTT) MCF-7; type: cell-based, human; details: mcf-7 cells
Protocol: (§1) The cells were cultured in the presence of the porphyrins incubator for 4-7 days and then treated with 3-(4,5-dimethylthiazol-2-yl)-2,5-diphenyl-tetrazolium bromide (MTT). Formazan concentration was quantitated by absorbance at 570 nm.

MDA-231 = test: Cytotoxicity (MTT) MDA-231; type: cell-based, human; details: mda-231 cells
Protocol: as §1

BT-20 = test: Cytotoxicity (MTT) BT-20; type: cell-based, human; details: bt-20 cells
Protocol: as §1

PC3 = test: Cytotoxicity (MTT) PC3; type: cell-based, human; details: pc3 cells
Protocol: as §1

DU145 = test: Cytotoxicity (MTT) DU145; type: cell-based, human; details: du145 cells
Protocol: as §1

LNCap = test: Cytotoxicity (MTT) LNCap; type: cell-based, human; details: lncap cells
Protocol: as §1

Daudi = test: cells; type: cell-based, human; details: daudi cells
Protocol: as §1

Raji = test: Cytotoxicity (MTT) Raji; type: cell-based, human; details: raji cells
Protocol: as §1

NHLF = test: Cytotoxicity (MTT) NHLF normal lung fibroblasts; type: cell-based; details: human, nhlf cells
Protocol: as §1
All porphyrins were obtained from Midcentury, Posen, Ill. The experimental work with porphyrins was performed under minimum exposure to light. All human tumor cell lines and normal human breast cells Hs578Bst were purchased from the American Type Culture Collection. Normal human lung fibroblasts NHLF were obtained from Clonetics Corporation. The cell lines were grown according to the suppliers' instructions.

HS578t = type: cell-based, human; details: hs578t cells
Protocol: (§2) Cytotoxicity of the compounds to human breast cancer cells in vitro was assessed using a panel of cell lines representing estrogen receptor-positive (BT20, MCF-7m), and a pair of estrogen receptor-negative, transformed breast (11S578t) and normal breast (HS578Bst) cells.
(§3) Thy: tritiated […] assay (n = 3 ± SEM)

MCF-7M [2] = type: cell-based, human; details: mcf-7m cells
Protocol: as §2, §3

MCF-7M [3] = type: cell-based, human; details: mcf-7m cells; remark: listed apart in the source
Protocol: as §2

HeLa = test: cells; type: cell-based, human; details: hela cells
[4] = tested on: MCF7 human breast carcinoma cells (telomerase activity); test: Telomerase activity in intact MCF7 cells cultured with porphyrin; type: cell-based
Protocol: To determine the long-term effects of TMPyP4 on whole cells, MCF7 breast carcinoma cells were cultured in the continuous presence of 1, 10, and 100 μM TMPyP4. The porphyrin solution was freshly added to the medium from the concentrated stock at each passage of the cells (every 3-4 days). On days 4, 8, and 15, the cells were lysed and the telomerase activity was measured in the extracts.
Breast cancer cells MCF-7m, BT20, HS578t and normal HS578Bst cells were grown in culture in T75 flasks (10^6 cells/flask). […] The cells were harvested and freeze-thawed and the extracts used to measure telomerase activity using the Dynabeads method.

[5] = tested on: telomere length in MCF7 cells; test: Telomere length analysis in MCF7 cells; type: cell-based, human
Protocol: DNA was extracted from a minimum of 5×10^6 cells by SDS, proteinase K treatment, then purified and quantitated as previously described (Strahl and Blackburn, 1991). Approximately 1 μg of total DNA was digested with Mse I; the digested DNA was size fractionated by agarose gel electrophoresis and Southern blotted. The blots were hybridized with a ^32 P-labeled 0.5 kb PCR™ DNA fragments composed of the telomere repeat d(TTAGGG), which served as a probe for the telomeres. The hybridized probe was detected by autoradiography and each lane on the film was analyzed by phosphoimage analysis (Molecular Dynamics).
Telomeres shorten at an average rate of 65-100 base pairs per cell division (Counter et al., 1992). To observe a significant effect of an agent on telomere length, e.g., shortening the telomeres by >1 kilobase in MCF7 cells (5.7 kbases), a minimum of […] population doubling times will be required.

sea urchin embryos = details: in vivo
Protocol: Lytechinus pictus sea urchins were purchased from Marinus Inc. (Long Beach, Calif.) and maintained at 15° C. in refrigerated aquaria containing Instant Ocean synthetic sea water, following a described procedure [Vafa, 1996 #300]. For polyspermic fertilization, 0.01 vol freshly prepared stock sperm suspension (25 ml ASW containing 2 ml undiluted semen) was added to the eggs suspended for 10 min at 1% concentration in ASW adjusted to pH 9.0 with NH4 OH and stirred at 60 rpm with motor-driven Teflon paddles. Ten min after insemination, the fertilized eggs were allowed to settle, and the supernatant ASW containing sperm was aspirated and replaced with fresh ASW. The embryos were cultured at 18° C. Twenty min after fertilization TMPyP4 or TMPyP4.Pt^II (100 μM final concentration) was added from a concentrated stock in DMSO to 1% embryo suspensions. Equivalent amounts of DMSO (final 0.1%) were added to control egg suspensions. At measured times after insemination, the embryos were pelleted by centrifugation and resuspended in Carnoy's fixative (ethanol:acetic acid, 3:1) for at least 1 hr. After fixation the embryos were pelleted and resuspended successively in: (1) ethanol:acetic acid, 1:1 for 5-15 min: (2) 45% acetic acid for 5-15 min; (3) room temperature 1 N HCl for 1-2 min: (4) 60° C. 1 N HCl for 7-8 min; (5) room temperature 1 N HCl for 1-2 min; (6) Schiffs reagent for 90-120 min; and (7) 45% acetic acid before affixing the embryos to microscope slides. Embryo samples were placed on microscope slides, covered with coverslips, and frozen on a bed of dry ice. After at least 30 min, the coverslips were popped off using a razor blade and the slides were immediately plunged into Coplin jars containing 95% ethanol for 5-10 min. The slides were then transferred to Coplin jars containing 100% ethanol for 3-5 min. After removing the slides and allowing them to air dry, the embryos were mounted with one drop Permount (Fisher) under a coverglass.
The inventors examined whether treatment of the embryos with G-quadroplex interactive agents can cause observable chromosomal abnormalities. A time course of the embryo development was followed in the presence of 10 μM and 100 μM concentrations of TMPyP4 or TMPyP4.Pt^II.

Sequence of human telomerase (O14746 whole entry): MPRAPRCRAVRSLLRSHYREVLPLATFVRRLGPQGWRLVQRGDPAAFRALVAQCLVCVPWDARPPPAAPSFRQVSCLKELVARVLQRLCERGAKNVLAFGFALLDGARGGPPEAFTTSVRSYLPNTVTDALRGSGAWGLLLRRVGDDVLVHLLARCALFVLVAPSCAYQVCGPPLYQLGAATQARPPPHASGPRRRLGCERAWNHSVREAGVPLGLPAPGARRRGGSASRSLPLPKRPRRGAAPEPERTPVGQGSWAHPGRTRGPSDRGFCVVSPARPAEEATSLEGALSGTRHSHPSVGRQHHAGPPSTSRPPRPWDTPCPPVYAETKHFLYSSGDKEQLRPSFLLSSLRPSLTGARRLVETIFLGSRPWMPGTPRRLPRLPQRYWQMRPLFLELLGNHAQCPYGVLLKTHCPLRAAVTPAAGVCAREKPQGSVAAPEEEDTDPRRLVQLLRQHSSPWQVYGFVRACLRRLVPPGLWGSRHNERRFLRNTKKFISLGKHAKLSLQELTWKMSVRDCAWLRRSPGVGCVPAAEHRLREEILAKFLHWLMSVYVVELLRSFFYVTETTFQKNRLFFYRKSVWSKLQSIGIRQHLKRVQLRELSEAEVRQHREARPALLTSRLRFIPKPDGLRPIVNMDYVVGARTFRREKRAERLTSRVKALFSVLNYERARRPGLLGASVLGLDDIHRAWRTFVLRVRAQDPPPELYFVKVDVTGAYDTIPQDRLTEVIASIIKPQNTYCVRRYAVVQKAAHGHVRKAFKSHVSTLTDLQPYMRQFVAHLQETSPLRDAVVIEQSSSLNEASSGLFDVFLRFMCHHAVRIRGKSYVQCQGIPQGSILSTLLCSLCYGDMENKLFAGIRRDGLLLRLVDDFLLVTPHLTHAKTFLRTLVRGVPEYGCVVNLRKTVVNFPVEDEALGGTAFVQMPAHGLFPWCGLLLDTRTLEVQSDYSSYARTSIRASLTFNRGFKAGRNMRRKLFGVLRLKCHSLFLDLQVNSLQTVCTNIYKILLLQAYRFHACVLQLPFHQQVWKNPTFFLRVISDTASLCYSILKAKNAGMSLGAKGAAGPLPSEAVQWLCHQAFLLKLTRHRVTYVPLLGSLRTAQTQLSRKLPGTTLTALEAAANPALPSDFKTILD

**Q.** For `O=[N+]([O-])c1cc(-c2c3nc(c(-c4ccc(Cl)c([N+](=O)[O-])c4)c4ccc([nH]4)c(-c4ccc(Cl)c([N+](=O)[O-])c4)c4nc(c(-c5ccc(Cl)c([N+](=O)[O-])c5)c5ccc2[nH]5)C=C4)C=C3)ccc1Cl` [Compound D13, 5,10,15,20-tetra-(4-chloro-3-nitrophenyl)porphine], which “% insoluble remark (solubility)” value [1] is on record?
**A.** insoluble

**Q.** For `O=[N+]([O-])c1cccc(-c2c3nc(cc4ccc([nH]4)c(-c4cccc([N+](=O)[O-])c4)c4nc(cc5ccc2[nH]5)C=C4)C=C3)c1` [Compound D16], which “% insoluble remark (solubility)” value [1] is on record?
**A.** insoluble

**Q.** With `C[n+]1ccc(-c2c3nc(c(-c4cc[n+](C)cc4)c4ccc([n-]4)c(-c4cc[n+](C)cc4)c4nc(c(-c5cc[n+](C)cc5)c5ccc2[n-]5)C=C4)C=C3)cc1.[Cl-].[Cl-].[Cl-].[Cl-].[Pt+2]` [TMPyP4 PtII, Platinum(II)tetra(N-methyl-4-pyridyl)porphyrin chloride] as the compound, how does the “% Inhibition of telomerase” value (human telomerase; 25 µM) read?
**A.** 69%

**Q.** What about the IC50 (human telomerase; read-out: Telomerase Inhibition) of the same compound?
**A.** 15 µM

**Q.** What about the IC50 (MCF-7) of the same compound?
**A.** > 100 µM

**Q.** What about the IC50 (MDA-231) of the same compound?
**A.** > 100 µM

**Q.** And the IC50 (BT-20)?
**A.** 262 µM

**Q.** What about the IC50 (PC3) of the same compound?
**A.** > 200 µM

**Q.** And the IC50 (DU145)?
**A.** 1360 µM

**Q.** And the IC50 (LNCap)?
**A.** 42.2 µM

**Q.** What about the IC50 (Daudi) of the same compound?
**A.** 104 µM

**Q.** What about the IC50 (Raji) of the same compound?
**A.** 64.6 µM

**Q.** What about the CC50 (NHLF) of the same compound?
**A.** 11.6 µM

**Q.** What about the IC50 (HS578t) of the same compound?
**A.** 214 ± 49 µM

**Q.** And the IC50 (MCF-7M [2])?
**A.** 434 ± 386 µM

**Q.** And the IC50 (MCF-7M [3])?
**A.** 74.8 ± 31.9 µM

**Q.** And the IC50 (HeLa)?
**A.** 136 ± 34.8 µM

**Q.** And the “telomerase activity in intact MCF7 cells” value [4]?
**A.** less potent inhibitor than TMPyP4

**Q.** And the “effect on telomere shortening” value [5]?
**A.** No detectable effects on telomere shortening

**Q.** And the “cell number and morphology of embryos” value (sea urchin embryos)?
**A.** fewer cells, many very misshapen and variable in size relative to the controls

**Q.** What about the “condensed chromosome length / chromosomal effects” value (sea urchin embryos) of the same compound?
**A.** Qualitatively similar results

**Q.** What about the “differences from controls in embryos” value (sea urchin embryos) of the same compound?
**A.** no definitive differences were seen

**Q.** And the “first signs of ciliary motility” value (sea urchin embryos)?
**A.** 9 h

**Q.** What about the toxicity to embryos (sea urchin embryos) of the same compound?
**A.** generally non-toxic to the embryos

**Q.** With “Ethylenediamine protoporphyrin-IX [Compound B19]” as the compound, how does the “% Inhibition of telomerase” value (human telomerase; 25 μM, Table 5) read?
**A.** 0%
